Test results: ChEMBL document CHEMBL3885861, “Open TG-GATES”

Species: Rattus norvegicus
Experiment: Open TG-GATES - Regimen: Daily Repeat
Format: toxicity, organism-based, Sprague-Dawley
Set-up: regimen Daily Repeat, gender Male, age 6 weeks
Conditions: in vivo, po, 300 mg/kg, […], route gavage, dose level Middle; for KIDNEY_L / KIDNEY_R / KIDNEY_TOTAL: tissue Kidney; for LIVER: tissue Liver; for A/G / ALP / ALT / AST / BUN / CRE / Ca / Cl / DBIL / GLC / IP / K / LDH / Na / PL / RALB / TBIL / TC / TG / TP / gamma-GTP: tissue Plasma

Which results are given for CNC(=C[N+](=O)[O-])NCCSCc1ccc(CN(C)C)o1 [RANITIDINE]?
Lym (tissue Blood, time 28 day): 81.4%; MCH (tissue Blood, time 28 day): 20.5 pg; MCHC (tissue Blood, time 28 day): 35.4%; MCV (tissue Blood, time 28 day): 58.1 fL; Mono (tissue Blood, time 28 day): 1.8%; Neu (tissue Blood, time 28 day): 14%; PT (tissue Blood, time 28 day): 12.3 s; Plat (tissue Blood, time 28 day): 110 x10_4/uL; RBC (tissue Blood, time 28 day): 747 x10_4/ul; Ret (tissue Blood, time 28 day): 2.2%; WBC (tissue Blood, time 28 day): 117.7 x10_2/uL; KIDNEY_L (time 7 day): 1.1 g; KIDNEY_R (time 7 day): 1.1 g; KIDNEY_TOTAL (time 7 day): 2.2 g; KIDNEY_L (time 14 day): 1.2 g; KIDNEY_R (time 14 day): 1.2 g; KIDNEY_TOTAL (time 14 day): 2.4 g; KIDNEY_L (time 28 day): 1.4 g; KIDNEY_R (time 28 day): 1.5 g; KIDNEY_TOTAL (time 28 day): 2.9 g; LIVER (time 7 day): 11.7 g; LIVER (time 14 day): 13.8 g; LIVER (time 28 day): 16.3 g; A/G (time 7 day): 1.5; ALP (time 7 day): 802.2 IU/L; ALT (time 7 day): 33.2 IU/L; AST (time 7 day): 61.4 IU/L; BUN (time 7 day): 14.6 mg/dL; CRE (time 7 day): 0.4 mg/dL; Ca (time 7 day): 10.6 mg/dL; Cl (time 7 day): 103.8 meq/L; DBIL (time 7 day): 0.084 mg/dL; GLC (time 7 day): 211.6 mg/dL; IP (time 7 day): 7.5 mg/dL; K (time 7 day): 3.8 meq/L; LDH (time 7 day): 159.2 IU/L; Na (time 7 day): 141 meq/L; PL (time 7 day): 138.2 mg/dL; RALB (time 7 day): 3.4 g/dL; TBIL (time 7 day): 0.1 mg/dL; TC (time 7 day): 72.8 mg/dL; TG (time 7 day): 83 mg/dL; TP (time 7 day): 5.7 g/dL; gamma-GTP (time 7 day): 1.4 IU/L; A/G (time 14 day): 1.4; ALP (time 14 day): 849.4 IU/L; ALT (time 14 day): 36.4 IU/L; AST (time 14 day): 70.4 IU/L; BUN (time 14 day): 17.4 mg/dL; CRE (time 14 day): 0.5 mg/dL; Ca (time 14 day): 10.6 mg/dL; Cl (time 14 day): 103.6 meq/L; DBIL (time 14 day): 0.098 mg/dL; GLC (time 14 day): 203.8 mg/dL; IP (time 14 day): 7.1 mg/dL; K (time 14 day): 4 meq/L; LDH (time 14 day): 228.8 IU/L; Na (time 14 day): 142.2 meq/L; PL (time 14 day): 151.6 mg/dL; RALB (time 14 day): 3.5 g/dL; TBIL (time 14 day): 0.2 mg/dL; TC (time 14 day): 68.6 mg/dL; TG (time 14 day): 142.4 mg/dL; TP (time 14 day): 6 g/dL; gamma-GTP (time 14 day): 1 IU/L; A/G (time 28 day): 1.3; ALP (time 28 day): 642.2 IU/L; ALT (time 28 day): 34.6 IU/L; AST (time 28 day): 60.2 IU/L; BUN (time 28 day): 18 mg/dL; CRE (time 28 day): 0.5 mg/dL; Ca (time 28 day): 10.5 mg/dL; Cl (time 28 day): 102.8 meq/L; DBIL (time 28 day): 0.1 mg/dL; GLC (time 28 day): 200 mg/dL; IP (time 28 day): 6.9 mg/dL; K (time 28 day): 3.6 meq/L; LDH (time 28 day): 112 IU/L; Na (time 28 day): 141.2 meq/L; PL (time 28 day): 138.4 mg/dL; RALB (time 28 day): 3.4 g/dL; TBIL (time 28 day): 0.2 mg/dL; TC (time 28 day): 64.6 mg/dL; TG (time 28 day): 125.6 mg/dL; TP (time 28 day): 6.1 g/dL; gamma-GTP (time 28 day): 1 IU/L
